From ChEMBL document CHEMBL5233265, “Recent advances in the design and development of formyl peptide receptor 2 (FPR2/ALX) agonists as pro-resolving agents with diverse therapeutic potential” (Eur J Med Chem, 2021) come the findings set out here.

Each structure is given as a SMILES string. pEC50, pIC50: −log10 of the molar value.

What is called pEC50 is −log10 of the EC50, conventionally taken in molar units. As a reminder, the pIC50 is −log10 of the IC50, conventionally taken in molar units.

Test [1] addresses T1, fMet-Leu-Phe receptor (Homo sapiens, UniProt P21462).
T1 sequence (P21462 whole entry): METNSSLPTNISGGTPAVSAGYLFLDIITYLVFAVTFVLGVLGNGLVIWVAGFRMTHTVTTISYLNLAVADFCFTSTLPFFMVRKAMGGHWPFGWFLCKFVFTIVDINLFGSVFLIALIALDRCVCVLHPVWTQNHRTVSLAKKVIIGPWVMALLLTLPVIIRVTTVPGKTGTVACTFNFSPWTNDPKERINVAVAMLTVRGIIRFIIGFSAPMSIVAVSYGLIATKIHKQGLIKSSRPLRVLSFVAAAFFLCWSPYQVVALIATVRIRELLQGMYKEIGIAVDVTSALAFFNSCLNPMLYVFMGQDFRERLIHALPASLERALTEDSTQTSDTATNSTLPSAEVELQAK
The test is described as follows: Agonist activity at human FPR1 expressed in CHO-A12 cells assessed as cAMP level incubated for 1.5 hr by HTRF assay. The class given is cell-based.

Test [2] addresses T2, N-formyl peptide receptor 2 (Homo sapiens, UniProt P25090).
T2 sequence (P25090 whole entry): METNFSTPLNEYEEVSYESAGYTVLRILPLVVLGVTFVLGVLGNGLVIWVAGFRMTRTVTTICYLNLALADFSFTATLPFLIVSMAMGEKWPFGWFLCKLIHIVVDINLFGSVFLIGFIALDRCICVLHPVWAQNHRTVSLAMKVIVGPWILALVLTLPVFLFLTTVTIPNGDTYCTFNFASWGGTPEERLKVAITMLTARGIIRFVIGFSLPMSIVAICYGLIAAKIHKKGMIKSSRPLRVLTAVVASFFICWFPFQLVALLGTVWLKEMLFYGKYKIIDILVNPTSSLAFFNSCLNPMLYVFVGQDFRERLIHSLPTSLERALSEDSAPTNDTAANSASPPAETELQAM
The test is described as follows: Agonist activity at human FPR2 expressed in CHO-A12 cells assessed as cAMP level incubated for 1.5 hr by HTRF assay. The class given is cell-based.

Test [3] concerns the target T3, fMet-Leu-Phe receptor (Mus musculus, UniProt P33766).
T3 sequence (P33766 whole entry): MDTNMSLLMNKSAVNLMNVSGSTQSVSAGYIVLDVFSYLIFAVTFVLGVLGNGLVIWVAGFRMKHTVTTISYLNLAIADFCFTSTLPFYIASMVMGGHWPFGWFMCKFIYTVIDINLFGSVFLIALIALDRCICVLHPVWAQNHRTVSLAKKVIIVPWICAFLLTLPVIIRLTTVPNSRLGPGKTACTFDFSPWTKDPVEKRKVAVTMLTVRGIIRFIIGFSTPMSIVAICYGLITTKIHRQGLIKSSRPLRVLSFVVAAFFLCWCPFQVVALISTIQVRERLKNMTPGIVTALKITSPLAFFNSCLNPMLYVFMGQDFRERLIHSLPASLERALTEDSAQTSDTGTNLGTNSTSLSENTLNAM
In words: Agonist activity at mouse FPR1 expressed in CHO-A12 cells assessed as cAMP level incubated for 1.5 hr by HTRF assay. It is filed as cell-based.

The target in test [4] is T4, Formyl peptide receptor 2 (Mus musculus, UniProt O88536).
T4 sequence (O88536 whole entry): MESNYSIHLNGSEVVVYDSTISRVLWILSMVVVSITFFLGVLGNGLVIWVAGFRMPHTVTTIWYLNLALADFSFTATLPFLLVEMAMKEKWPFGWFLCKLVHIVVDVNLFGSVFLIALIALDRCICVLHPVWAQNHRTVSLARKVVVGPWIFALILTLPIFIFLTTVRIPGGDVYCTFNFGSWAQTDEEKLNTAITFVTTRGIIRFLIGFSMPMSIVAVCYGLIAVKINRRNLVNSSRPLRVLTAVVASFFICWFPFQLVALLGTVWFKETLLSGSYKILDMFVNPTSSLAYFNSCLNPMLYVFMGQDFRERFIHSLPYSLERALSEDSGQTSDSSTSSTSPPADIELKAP
In words: Agonist activity at mouse FPR2 expressed in CHO-A12 cells assessed as cAMP level incubated for 1.5 hr by HTRF assay. The class given is cell-based. (In general: Cyclic AMP is a second messenger, typically raised through Gs and lowered through Gi signalling.)

Test [5] deals with T5, Formyl peptide receptor-related sequence 1 (Mus musculus, UniProt O08790).
T5 sequence (O08790 whole entry): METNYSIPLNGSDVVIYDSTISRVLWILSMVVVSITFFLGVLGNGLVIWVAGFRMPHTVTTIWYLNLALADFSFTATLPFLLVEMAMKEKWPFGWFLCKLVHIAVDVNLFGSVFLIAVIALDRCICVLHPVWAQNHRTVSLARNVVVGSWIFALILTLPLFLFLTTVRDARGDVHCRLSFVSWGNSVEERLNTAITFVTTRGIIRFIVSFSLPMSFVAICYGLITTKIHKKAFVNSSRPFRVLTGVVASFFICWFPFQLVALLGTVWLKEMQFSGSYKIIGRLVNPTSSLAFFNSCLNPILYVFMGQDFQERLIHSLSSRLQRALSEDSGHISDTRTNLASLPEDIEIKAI
The test is described as follows: Agonist activity at mouse FPR3 expressed in CHO-A12 cells assessed as cAMP level incubated for 1.5 hr by HTRF assay. The class given is cell-based.

Test [6] addresses T2, N-formyl peptide receptor 2. The test is described as follows: Agonist activity at human FPR2 expressed in CHO-K1 cells by beta-arrestin recruitment assay. The class given is cell-based.
The test system of test [7] is HL-60. In words: Induction of cell migration in human HL-60 cells incubated for 120 mins by transwell assay. The following applies: HL-60, 2 h. It is filed as functional, cell-based.
Test [8] has as its system HL-60. The test is described as follows: Inhibition of cell migration in human HL-60 cells incubated for 120 mins in presence of serum amyloid A by transwell assay. It is filed as functional, cell-based. The following applies: HL-60, 2 h.
The subject of test [9] is Mus musculus. The test is described as follows: Neuroprotective activity against Myocardial infarction C57BL/6 mouse model assessed as reduction in infarct area at 1 mg/kg,po qd measured after 4 weeks. The class given is functional. The arrangement: scale not given: the % may be the effect or the level left.
Test [10] relates to Mus musculus. The test is described as follows: Neuroprotective activity against Myocardial infarction C57BL/6 mouse model assessed as reduction in infarct area at 10 mg/kg,po qd measured after 4 weeks. The arrangement: scale not given: the % may be the effect or the level left. It is filed as functional.
Test [11] deals with Rattus norvegicus. The test is described as follows: Neuroprotective activity against ischemia-reperfusion injury Sprague-Dawley rat model assessed as increase in ejection fraction at 10 mg/kg,po qd measured after 6 weeks. The class given is functional.
Test [12] relates to Rattus norvegicus. In words: Neuroprotective activity against ischemia-reperfusion injury Sprague-Dawley rat model assessed as increase in proximal viable myocardium at 10 mg/kg,po qd measured after 6 weeks. The class given is functional.
Test [13] relates to Rattus norvegicus. The test is described as follows: Neuroprotective activity against ischemia-reperfusion injury Sprague-Dawley rat model assessed as increase in mid viable myocardium at 10 mg/kg,po qd measured after 6 weeks. The class given is functional.
In test [14] the test system is Rattus norvegicus. The test is described as follows: Neuroprotective activity against ischemia-reperfusion injury Sprague-Dawley rat model assessed as increase in distal viable myocardium at 10 mg/kg,po qd measured after 6 weeks. It is filed as functional.
In test [15] the test system is Mus musculus. The test is described as follows: Neuroprotective activity against Myocardial infarction C57BL/6 mouse model assessed as fold increase in infarct wall thickness at 10 mg/kg,po qd measured after 4 weeks. It is filed as functional.
Test [16] in a line: Agonist activity at rat FPR1 expressed in CHO-A12 cells assessed as cAMP level incubated for 1.5 hr by HTRF assay. It is filed as cell-based.
Test [17] can be described thus: Agonist activity at rat FPR2 expressed in CHO-A12 cells assessed as cAMP level incubated for 1.5 hr by HTRF assay. It is filed as cell-based.
The test system of test [18] is HL-60. The test is described as follows: Inhibition of cell migration in human HL-60 cells incubated for 135 mins by transwell assay. It is filed as functional, cell-based. The following applies: HL-60, 2.25 h.
The subject of another test is Peritoneal macrophage. In words: Induction of phagocytosis in C57BL6 mouse peritoneal macrophages assessed as increase in FITC signal preincubated with compound for 15 mins followed by zymosan addition and measured after 90 mins by Trypan Blue based FITC analysis.
The test system of test [19] is Mus musculus. The test is described as follows: Neuroprotective activity against coronary artery occlusion mouse model assessed as reduction in left ventricular chamber dilatation at 0.3 mg/kg,po measured after […]. Also noted: scale not given: the % may be the effect or the level left. The class given is functional.
Test [20] has as its system Mus musculus. In words: Neuroprotective activity against coronary artery occlusion mouse model assessed as reduction in left ventricular chamber dilatation at 3 mg/kg,po measured after […]. The class given is functional. The arrangement: scale not given: the % may be the effect or the level left.
Test [21] has as its system Mus musculus. In words: Neuroprotective activity against angiotensin II induced cardiac fibrosis mouse model assessed as reduction in fibrosis at 3 mg/kg,po qd measured after 3 weeks. The class given is functional. Also noted: scale not given: the % may be the effect or the level left.
For test [22], the system named is Mus musculus. The test is described as follows: Neuroprotective activity against DOCA induced cardiac fibrosis mouse model assessed as reduction in left ventricular fibrosis at 1 mg/kg,po qd measured after 3 weeks. It is filed as functional. Also noted: scale not given: the % may be the effect or the level left.

For `Cn1c(C(C)(C)C)c(NC(=O)Nc2ccc(Cl)cc2)c(=O)n1-c1ccccc1`, the pEC50 is 7.30 at fMet-Leu-Phe receptor [1]; 8.00 in test [2]; 7.70 at fMet-Leu-Phe receptor [3]; 7.30 in test [4]; under 6.00 in test [5]; 5.51 in test [6]. For the same compound, the negative logarithm of the EC50 (pEC50) in the test on HL-60 [7] was 7.11. Further, the pIC50 in the test with HL-60 [8] is 6.72. Further, the Activity with Mus musculus [9] stood at 44%; with Mus musculus [10] it was 49%; with Rattus norvegicus [11] it was 32%; with Rattus norvegicus [12], 34%; with Rattus norvegicus [13] it was 44%; in the test with Rattus norvegicus [14] it was 35%. Besides, the “fold change (FC)” value in the test on Mus musculus [15] amounted to 1.6.

As for `COc1cc(F)c([C@@H]2CNC(=O)[C@H]2NC(=O)Nc2ccccc2)c(F)c1` [BMS-986235], the pEC50 in test [2] is 5.90; in test [16], 8.82; in test [17], 6.14; in the test on Peritoneal macrophage, 8.70. The same compound gave a pIC50 with HL-60 [18] of 7.24. Moreover, the Activity in the test on Mus musculus [19] was found to be 26%; in the test with Mus musculus [20] it was 24%; with Mus musculus [21] it was 89%; with Mus musculus [22] it was 50%.
